This is an account of results in patent US7498292B2, “Combinatorial libraries of autoinducer analogs, autoinducer agonists and antagonists, and methods of use thereof” (The Research Foundation of State University of New York, priority 2002, dated 2009).

For series [1], the target named is T1, LasR (Pseudomonas aeruginosa, UniProt P25084).
T1 construct: endogenous in cells; host or cells: P. aeruginosa PAO-JP2 (lasI, rhlI) harboring plasI-LVAgfp
In words: lasI-gfp reporter antagonist (competition against AI1) assay, PAO-JP2 (plasI-LVAgfp). Format: cell-based, P. aeruginosa. As to conditions: 100-fold excess concentration over AI1 (1 μM AI1). On the procedure:
(§1) P. aeruginosa strain PAO-JP2 (lasI, rhlI) (Rahme et al., Science 268:1899-1902 (1995), which is hereby incorporated by reference in its entirety) harboring plasI-LVAgfp (Pearson et al., Proc. Natl Acad. Sci. USA 91:197-201 (1994), which is hereby incorporated by reference in its entirety) was grown at 37° C. in LB with 300 μg/ml carbenicillin. For agonist assays, an overnight culture was diluted to an OD600 of 0.1 and transferred to wells of a 96-well plate on which test compounds had previously been added and dried. The final concentration of each analog tested was roughly 400 μM, although this is an overestimate due to purity issues. Cells were then incubated for 6 hours at 37° C. with vigorous shaking. GFP expression was detected with a Molecular Imager (BioRad) (488 nm excitation and 695 nm bandpass filter) and quantified with ImageQuant software. The OD600 of cultures was determined to normalize GFP expression to cell density.
The methods were the same as described in Example 2 (GFP Reporter Assay), except that 1 μM AI1 was added to each well in combination with the library compound. The fluorescence/OD600 of each compound competing against AI1 was reported relative to the fluorescence/OD600 of the positive control of AI1 alone, which was set to 1. When strain PAO-JP2 (prhlI-LVAgfp) was used, the positive control was 1 μM AI1 and 10 μM AI2. Eight compounds that inhibited reporter gene expression by greater than 50% were identified (see, e.g., FIG. 6).
(§2) Reporter strains were grown overnight in LB plus 300 μg/ml carbenicillin at 37° C. and diluted to an OD600 of 0.1. Following an incubation of 1 hour, 200 μl of cell culture was added to individual wells of a 96 well plate containing appropriate amount of test compound(s). Plates were incubated for 6 hours and then scanned for fluorescence emission with a Molecular Imager (488 nm excitation and 695 nm bandpass filter). Fluorescence was quantified with ImageQuant software.

In series [2] the test system is pyocyanin. In words: pyocyanin assay, wild type strain PAO1. Format: cell-based, P. aeruginosa PAO1. The following applies: wild type PAO1, no AIs added. On the procedure:
(§3) For the pyocyanin assay, cells were grown overnight in LB then washed in fresh media and diluted to an OD600 of 0.05. This culture was grown for 3-4 hours to mid-log phase (OD600 of 0.3-0.5), then diluted to an OD600 of 0.05, and aliquoted to test tubes containing an appropriate amount of test compound(s). Following 18 hours of growth, pyocyanin was extracted from filtered culture supernatants and quantified using standard methods (Essar et al., J. Bacteriol. 172:884-900 (1990), which is hereby incorporated by reference in its entirety).

The subject of series [3] is pyocyanin. Description: pyocyanin assay, strain PAO-JP2. Format: cell-based, P. aeruginosa PAO-JP2. As to conditions: PAO-JP2, 25 μM each of AI1 and AI2; not concentration dependent over the range tested. On the procedure: as §3
The subject of a further series is P. aeruginosa. In words: cell growth in the reporter assay. Format: cell-based. As to conditions: concentrations up to 400 μM. On the procedure:
Based on the above hypothesis, a competition assay of 2 and 3 against AI1, using strain PAO-JP2 (plasI-LVAgfp), was performed. […] It should be noted that this inhibition experiment was performed with competition against 1 μM AI1, a concentration typically produced by wild type P. aeruginosa (Pearson et al., Proc. Natl Acad. Sci. USA 92:1490-1494 (1995), which is hereby incorporated by reference in its entirety). […] It should also be noted that cell growth was not affected by the addition of 2 or 3 at concentrations up to 400 μM. Thus, it appears that compounds 2 and 3 act as specific inhibitors of QS controlled promoters. Compound 6 was also tested for its ability to compete against AI2, but no inhibition of the rhlI-gfp reporter gene was seen.

Series [4] deals with Elastase B. In words: elastase (Elastin Congo Red) assay, wild type strain PAO1. Format: cell-based, P. aeruginosa PAO1. As to conditions: wild type PAO1, no exogenous autoinducers. How it is done: (§4) Pyocyanin, elastase, and biofilm were assayed as previously described (Smith et al., Chem. Biol. 10:81-89 (2003), which is hereby incorporated by reference in its entirety). Elastase activity produced by P. aeruginosa in the presence of AIs and competing 3-oxo-C12-D10 was determined by measuring breakdown of the substrate Elastin Congo Red.
(§5) For the elastase B assay, cells (PAO-JP2) were grown overnight in PTSB media (5% Peptone, 0.1% Tryptic Soy Broth) at 37° C., washed and diluted to an OD600 of 0.05, grown to mid-log phase, washed again, and re-suspended to an OD600 of 0.05. The culture was then added to test tubes containing test compound(s) and grown for 6 hours. Elastase B activity was quantified by incubation of 100 μl of filtered culture supernatant with 5 mg Elastin Congo Red substrate and 1 ml of 10 mM Tris pH 7.2, 1 mM CaCl2 for 6 hours at 37° C. with agitation. Elastase B activity is represented by the OD495 of the enzyme assay following reaction quenching with EDTA and centrifugation to remove unreacted substrate, divided by the OD600 of the cell culture. The same assay was run with strain PAO-1, however no exogenous autoinducers were added.

For series [5], the system named is Elastase B. Description: elastase (Elastin Congo Red) assay, strain PAO-JP2. Format: cell-based, P. aeruginosa PAO-JP2. As to conditions: PAO-JP2, 5 μM AI1 and 10 μM AI2. How it is done: as §4, §5
For the next series, the system named is lac promoter. Description: GFP expression from lac promoter, PAO-JP2 (pTdK-GFP) (specificity control). Format: cell-based, P. aeruginosa. As to conditions: lasI promoter replaced with a lac promoter.
Series [6] concerns the target T1, LasR. Description: lasI-gfp reporter agonist assay, PAO-JP2 (plasI-LVAgfp). Format: cell-based, P. aeruginosa. The following applies: PAO-JP2 (plasI-LVAgfp), compounds made in solution phase, increasing concentrations (1, 100, 400 μM).
Source text: Since this strain lacks the ability to produce natural AIs due to disruption of both AI synthase genes, activation of LasR relies on the addition of exogenous AI1. Expression of gfp (encoding green fluorescent protein) is under control of the LasR-AI1 inducible lasI promoter, allowing rapid screening for LasR agonists by measuring the level of GFP expression in their presence.
as §1, §2

Series [7] has as its system RhlR. In words: rhlI-gfp reporter antagonist assay, PAO-JP2 (prhlI-LVAgfp). Format: cell-based, P. aeruginosa. The following applies: competing against 1 μM AI1 and 10 μM AI2. On the procedure:
Each compound in the library was tested for antagonist activity using the same reporter strain, PAO-JP2 (plasI-LVAgfp) (de Kievit et al., Appl. Environ. Microbiol. 67:865-1873 (2001), which is hereby incorporated by reference in its entirety) to find compounds that could compete against AI1 and reduce GFP expression. The methods were the same as described in Example 2 (GFP Reporter Assay), except that 1 μM AI1 was added to each well in combination with the library compound. The fluorescence/OD600 of each compound competing against AI1 was reported relative to the fluorescence/OD600 of the positive control of AI1 alone, which was set to 1. When strain PAO-JP2 (prhlI-LVAgfp) was used, the positive control was 1 μM AI1 and 10 μM AI2.
3- oxo-C12-D10 was synthesized in solution phase, where the natural side chain was coupled with D10 and purified by chromatography. To determine if the same structural motif can be applied to inhibition of the RhlR-AI2 interaction, C4-D10 was also synthesized. Assays were performed with both the lasI-gfp reporter PAO-JP2 (plasI-LVAgfp) and an RhlR-AI2 controlled rhlI-gfp reporter, PAO-JP2 (prhlI-LVAgfp) (FIGS. 10A-C) (de Kievit et al., Appl. Environ. Microbiol. 67:865-1873 (2001), which is hereby incorporated by reference in its entirety).
as §2
Next the ability of 2 and 3 to inhibit the rhlI-gfp reporter strain PAO-JP2 (prhlI-LVAgfp) was tested, since this expression is also AI1-dependent.

The target of series [8] is T2, RhlR (Pseudomonas aeruginosa, UniProt P54292).
T2 construct: an RhlR-AI2 controlled rhlI-gfp reporter, PAO-JP2 (prhlI-LVAgfp); endogenous in cells; host or cells: P. aeruginosa PAO-JP2 (prhlI-LVAgfp)
As to conditions: 4-fold excess, in E. coli; cited from earlier work.

Series [9] has as its target T1, LasR. Description: lasB-lacZ reporter assay, E. coli MG4 (pKDT37). Format: cell-based, P. aeruginosa. As to conditions: E. coli MG4 (pKDT37), 6 hour incubation. On the procedure: E. coli strain MG4 (pKDT37) was grown overnight in Supplemented A media with 100 μg/mL ampicillin at 30° C. and diluted 1:100 in the same media. 1 mL of this culture was added to a test tube containing AI1 or 3-oxo-C12-D12 that had been previously aliquoted and dried. Following a 6 hour incubation at 30° C., β-galactosidase activity was determined using standard methods (Platt et al., Assays of the lac operon Enzymes In: Experiments in Molecular Genetics, Cold Spring Harbor Laboratory Press, Cold Spring Harbor, N.Y., pp. 352-355 (1972), which is hereby incorporated by reference in its entirety).
One of the new agonist structures identified from the library, D12, is 2-aminocyclohexanol (FIG. 5B). […] 3-oxo-C12-D12, containing the natural side chain, was synthesized in solution phase, and tested with both the lasI-gfp reporter as well as a lasB-lacZ reporter in Escherichia coli. E. coli strain MG4 harboring plasmid pKDT37 expresses lasR and contains a lacZ reporter gene controlled by a LasR-AI1 inducible lasB promoter (Passador et al., J. Bacteriol. 178:5995-6000 (1996), which is hereby incorporated by reference in its entirety). […] It also provides strong evidence that the agonist activity in P. aeruginosa is LasR dependent.
Background: In a reporter assay the amount or activity of a reporter protein is the signal.

The subject of a further series is lasB promoter. As to conditions: 320 μM furanone competing with 0.1 μM AI1; cited from earlier work.

Entries after “also recorded” stand apart in the source; their conditions may differ.

T1 sequence (P25084 whole entry): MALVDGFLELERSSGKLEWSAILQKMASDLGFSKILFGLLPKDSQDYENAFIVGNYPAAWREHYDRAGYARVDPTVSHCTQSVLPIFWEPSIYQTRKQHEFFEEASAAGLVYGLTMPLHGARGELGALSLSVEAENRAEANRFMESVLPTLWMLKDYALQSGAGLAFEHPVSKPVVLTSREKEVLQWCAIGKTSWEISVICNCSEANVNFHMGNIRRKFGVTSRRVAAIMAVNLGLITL
T2 sequence (P54292 whole entry): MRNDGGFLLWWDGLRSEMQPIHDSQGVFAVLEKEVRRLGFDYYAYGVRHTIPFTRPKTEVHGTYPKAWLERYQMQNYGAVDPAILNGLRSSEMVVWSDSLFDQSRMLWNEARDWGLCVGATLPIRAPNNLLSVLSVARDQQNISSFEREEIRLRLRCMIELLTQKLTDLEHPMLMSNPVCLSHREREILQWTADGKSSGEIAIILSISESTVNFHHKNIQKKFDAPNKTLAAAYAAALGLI

As to `CCCCCCCCCC(=O)CC(=O)N[C@@H]1CCC[C@H]1O` (racemic) [Compound 2, N-(trans-2-hydroxycyclopentyl)-3-oxododecanamide], at LasR [1], the “inhibition of GFP expression (lasI-gfp)” value is listed as “approximately 70%”. Moreover, the “effect on pyocyanin production” value in the series with pyocyanin [2] was “no significant effect”. In addition, in the series with pyocyanin [3], the “reduction of pyocyanin expression” value turned out to be 50%. Also, the “effect on cell growth” value with P. aeruginosa is “not affected”. Moreover, the “effect on elastase activity” value in the series with Elastase B [4] and in the series on Elastase B [5] was “no significant effect” in each case.
On to `CCCCCCCCCC(=O)CC(=O)N[C@@H]1CCC[C@H]1O` (relative stereo) [Compound 2, N-(trans-2-hydroxycyclopentyl)-3-oxododecanamide], for which the “inhibition of GFP expression from lac promoter” value in the series with lac promoter is given as “inability to inhibit GFP expression”. The “agonist activity (induction of lasI-gfp reporter)” value on LasR [6] is reported as “nearly unable to induce the reporter”. In addition, the “antagonist activity on rhlI-gfp reporter” value in the series on RhlR [7] is “no antagonist activity”.
On to `CCCCCCCCCC(=O)CC(=O)N[C@H]1CCOC1=O` [AI1, N-(3-oxododecanoyl)-L-homoserine lactone, reference compound], for which, on RhlR [8], the “reduction of binding of AI2 to RhlR” value is on record as 86%. The “lasB-lacZ reporter activation (beta-galactosidase activity)” value on LasR [9] is reported as “activated”. Also, the “agonist activity (induction of lasI-gfp reporter)” value on LasR [6] is listed as “activated; also recorded: Strong QS induction”.
With `O=C1C=C(Br)/C(=C/Br)O1` [furanone], the “inhibition (antagonist activity)” value with lasB promoter was “Approximately 50%”.
